From patent publication US20060251714A1, “Pharmaceutical formulations of amyloid inhibiting compounds” (priority 2005, published 2006)
Where two headings read alike, the source gives them in different places.

Key:
[1] = Hygroscopicity of the drug substance; format: physicochemical
Protocol: (§1) Furthermore, the non-hygroscopic nature of the acid form makes it desirable as active pharmaceutical ingredient. To further protect against any possible gastrointestinal intolerance that could result from the acid form, the tablets are enteric-coated and a modified-release agent is added to control any rapid release of the drug in the stomach and the intestine, respectively.

[2] = dog, in vivo
Protocol: as §1

[3] = Example 7 Part II: food effect, single oral 200 mg 3-APS in young male subjects, plasma pharmacokinetics; format: in vivo, human; conditions: single oral 200 mg (Table 3 formulation); for Cmax: male, po, 200 mg
Protocol: (§2) In the following examples and elsewhere herein, terms are as defined below. The pharmacokinetic parameters were derived by non-compartmental analysis using WinNonlin® (Pharsight Corporation, Mountain View, Calif.) or SAS® for Windows® (SAS Institute Inc., Cary, N.C.).
Following single oral dosing of 200 mg 3-APS (modified-release coated formulation as described in Table 3 above) to young male subjects (aged between 18 and 45 years) under fasted and fed (high fat) conditions, maximum plasma concentrations of 3-APS are attained […] post-dose under fasted and fed conditions, respectively (Table 9A).

[4] = Example 12: Phase II pilot study in CAA patients with lobar cerebral hemorrhage, plasma pharmacokinetics; format: in vivo, human; conditions: for AUC(0-inf) / Cmax / AUC(0-t): human, plasma, oral; for AUC(0-inf): mean, only patients with estimable elimination rate constant
From the text: as §2
AUCss—the area under the plasma concentrations versus time curve during a dosing interval at steady state.
A Phase II pilot study of the safety, tolerability and pharmacokinetics of 3-APS (formulation of Table 5 above) in patients with lobar cerebral hemorrhage related to Cerebral Amyloid Angiopathy (CAA). For doses at multiples of 50 mg, multiple 50 mg tables are administered. A multicenter, randomized, double-blind, and parallel designed study is conducted in the United States with 3-APS in patients who survived a lobar cerebral hemorrhage related to cerebral amyloid angiopathy (CAA). The main objective of this study is to assess the safety and tolerability of 3-APS and to characterize its pharmacokinetics in CAA patients.
A total of 24 patients who have had lobar cerebral hemorrhage are randomized to receive in a 1:1:1 ratio 3-APS 50, 100 or 150 mg BID for 12 weeks. A lumbar puncture is performed on an optional basis at Weeks 0 and 12 to assess the pharmacological effect of 3-APS on Aβ40, Aβ42 and tau concentrations in cerebrospinal fluid (CSF) and to measure the drug concentration in the CSF. Rating instruments (NIHSS, Barthel Index, ADAS-cog and EXIT25) are administered at Weeks 0 and 12 to evaluate the neurological and cognitive functions as well as the daily functioning.
For pharmacokinetic investigations, blood samples are collected from each patient prior to dosing and at specified time points through 12 h post-dose after the first dose (Week 0) and the last dose (Week 12). Blood samples are also collected prior to the first dose of the day during Week 2, 4 and 8 visits. CSF samples are obtained by lumbar puncture prior to dosing on Week 0 and approximately 5 hours post-dose on Week 12.

[5] = test system: CSF Aβ42; assay: Example 11: additional tests, CSF Aβ42 level and Aβ42/Aβ40 ratio in treated patients; format: in vivo, human
Protocol: FIG. 1 Change from Baseline CSF Aβ42 versus 3-APS doses
FIG. 2 Effect of 3-APS on CSF Aβ42/40 Ratio in Mild-to-Moderate AD Patients—Placebo vs. 150 mg BID
FIG. 3 Effect of 3-APS on CSF Aβ42/40 Ratio in Mild-to-Moderate AD Patients 0 and 50 mg 3-APS
FIG. 4 Effect of 3-APS on CSF Aβ42/40 Ratio in Mild-to-Moderate AD Patients 100 and 150 mg 3-APS

[6] = Example 13: single 150 mg dose of Modified-Release Coated Tablets in healthy elderly male volunteers, plasma pharmacokinetics; format: in vivo; conditions: human, single oral 150 mg (3 × 50 mg Table 5 tablets), elderly male subjects; for AUC(0-inf) / Cmax / AUC(0-t): male, po, 150 mg; for AUC(0-t): read-out: AUC0-Tlast
Protocol: as §2
For the 150 mg dose, three 50 mg tables are administered.

[7] = Example 10: 3-APS concentration in cerebrospinal fluid of AD patients; format: in vivo; conditions: human
From the text: A multicenter, randomized, double-blind, placebo-controlled and parallel designed study is made with 3-APS in the formulation described in Table 5 above in patients suffering from mild to moderate Alzheimer's Disease (AD). An objective of this study is to assess the safety and tolerability of 3-APS and to assess its pharmacokinetics in AD patients. A total of fifty-eight (58) mild to moderate AD patients (MMSE scores=13 to 26) are enrolled from 6 centers in the United States. Patients are randomized to receive in 1:1:1:1 ratio of NC-758-1 at 50, 100, 150 mg BID or placebo BID for 12 weeks. Study medication is administered orally (tablet). For doses at multiples of 50 mg, multiple 50 mg tables are administered. Each patient is evaluated on 6 occasions at screening, baseline [Week 0], weeks 2, 4, 8 and 12. Blood samples are collected from each patient prior to dosing and at specified time points through 12 h post-dose after the first dose (Week 0) and the last dose (Week 12). Blood samples are also collected prior to the first dose of the day during Week 2, 4 and 8 visits.
(Patients having a CSF level below the lower limit of quantitation of the assay are considered as zero.) CSF concentrations of 3-APS on Day 2 of Week 12 after twice daily oral administration for 12 weeks are as follows: […]

[8] = Fasting Conditions, n = 11, mean

Q: For NCCCS(=O)(=O)O [3-APS, 3-amino-1-propanesulfonic acid], which hygroscopic nature [1] is on record?
A: Its hygroscopic nature is “non-hygroscopic”.

Q: And the tolerability [2]?
A: The tolerability was “better tolerated than the sodium salt form”.

Q: And the AUC(0-inf) ([3]; human, plasma, Fasting Arm, mean, only subjects with estimable elimination rate constant)?
A: Its AUC(0-inf) is 2400 ng·h/mL.

Q: What about the AUC(0-t) ([3]; human, plasma, Fed Arm (high fat), n = 8, mean, read-out: AUC0-Tlast) of the same compound?
A: Its AUC(0-t) is 3870 ng·h/mL.

Q: And the Tmax ([3]; human, plasma, Fed Arm (high fat), n = 8, median)?
A: Its Tmax is 13.5 h.

Q: What about the Cmax ([3]; human, plasma, Fasting Arm, n = 8, mean) of the same compound?
A: Its Cmax is 594 ng/mL.

Q: What about the Cmax ([3]; human, plasma, Fed Arm (high fat), n = 8, mean) of the same compound?
A: The Cmax was 631 ng/mL.

Q: And the AUC0-Tlast ([3]; Fasting Arm, n = 8, mean)?
A: The AUC0-Tlast was 2196 ng·h/mL.

Q: What about the “AUC∞” value ([3]; Fed Arm (high fat), mean, only subjects with estimable elimination rate constant) of the same compound?
A: The value was 4497 ng·h/mL.

Q: And the Tmax ([4]; 50 mg BID (Table 5 tablet), Week 0 (single dose), n = 8, median)?
A: Its Tmax is 4.5 h.

Q: And the Tmax ([4]; 50 mg BID (Table 5 tablet), Week 12 (repeated), n = 8, median)?
A: The Tmax was 4.4 h.

Q: What about the Tmax ([4]; 100 mg BID (Table 5 tablet), Week 12 (repeated), n = 6, median) of the same compound?
A: The Tmax was 5.15 h.

Q: And the Tmax ([4]; 150 mg BID (Table 5 tablet), Week 12 (repeated), n = 3, median)?
A: The Tmax was 5.4 h.

Q: And the AUC(0-inf) ([4]; 50 mg BID (Table 5 tablet), Week 0 (single dose))?
A: The AUC(0-inf) was 1640 ng·h/mL.

Q: What about the Cmax ([4]; 50 mg, 50 mg BID (Table 5 tablet), Week 0 (single dose), n = 8, mean) of the same compound?
A: The Cmax was 346 ng/mL.

Q: And the AUC(0-t) ([4]; 50 mg, 50 mg BID (Table 5 tablet), Week 0 (single dose), n = 8, mean, read-out: AUC0-t)?
A: The AUC(0-t) was 1280 ng·h/mL.

Q: What about the Cmax ([4]; 50 mg, 50 mg BID (Table 5 tablet), Week 12 (repeated), n = 8, mean) of the same compound?
A: The Cmax was 171 ng/mL.

Q: What about the AUC(0-t) ([4]; 50 mg, 50 mg BID (Table 5 tablet), Week 12 (repeated), n = 8, mean, read-out: AUC0-t (AUCss for Week 12)) of the same compound?
A: The AUC(0-t) was 947 ng·h/mL.

Q: What about the AUC(0-inf) ([4]; 100 mg BID (Table 5 tablet), Week 0 (single dose)) of the same compound?
A: Its AUC(0-inf) is 2780 ng·h/mL.

Q: And the Cmax ([4]; 100 mg, 100 mg BID (Table 5 tablet), Week 0 (single dose), n = 7, mean)?
A: The Cmax was 552 ng/mL.

Q: What about the AUC(0-t) ([4]; 100 mg, 100 mg BID (Table 5 tablet), Week 0 (single dose), n = 7, mean, read-out: AUC0-t) of the same compound?
A: Its AUC(0-t) is 2630 ng·h/mL.

Q: What about the Cmax ([4]; 100 mg, 100 mg BID (Table 5 tablet), Week 12 (repeated), n = 6, mean) of the same compound?
A: Its Cmax is 806 ng/mL.

Q: And the AUC(0-t) ([4]; 100 mg, 100 mg BID (Table 5 tablet), Week 12 (repeated), n = 6, mean, read-out: AUC0-t (AUCss for Week 12))?
A: Its AUC(0-t) is 3700 ng·h/mL.

Q: And the AUC(0-inf) ([4]; 150 mg BID (Table 5 tablet), Week 0 (single dose))?
A: Its AUC(0-inf) is 3690 ng·h/mL.

Q: What about the Cmax ([4]; 150 mg, 150 mg BID (Table 5 tablet), Week 0 (single dose), n = 5, mean) of the same compound?
A: The Cmax was 857 ng/mL.

Q: What about the AUC(0-t) ([4]; 150 mg, 150 mg BID (Table 5 tablet), Week 0 (single dose), n = 5, mean, read-out: AUC0-t) of the same compound?
A: Its AUC(0-t) is 3900 ng·h/mL.

Q: What about the Cmax ([4]; 150 mg, 150 mg BID (Table 5 tablet), Week 12 (repeated), n = 3, mean) of the same compound?
A: Its Cmax is 1030 ng/mL.

Q: And the AUC(0-t) ([4]; 150 mg, 150 mg BID (Table 5 tablet), Week 12 (repeated), n = 3, mean, read-out: AUC0-t (AUCss for Week 12))?
A: The AUC(0-t) was 6750 ng·h/mL.

Q: And the “CSF Aβ42 levels” value ([5]; treated AD patients, FIG. 1)?
A: The value was “reduced CSF Aβ42 levels”.

Q: What about the “ratio of Aβ42/Aβ40 (CSF)” value ([5]; treated mild-to-moderate AD patients, FIGS. 2, 3 and 4) of the same compound?
A: The value was “reduced the ratio of Aβ42/Aβ40”.

Q: What about the Tmax ([6]; Fed Conditions, n = 10, median) of the same compound?
A: The Tmax was 5.5 h.

Q: What about the AUC(0-inf) [6, 8] of the same compound?
A: The AUC(0-inf) was 3280 ng·h/mL.

Q: What about the Cmax [6, 8] of the same compound?
A: Its Cmax is 772 ng/mL.

Q: What about the AUC(0-t) [6, 8] of the same compound?
A: Its AUC(0-t) is 3210 ng·h/mL.

Q: And the AUC(0-inf) ([6]; Fed Conditions, n = 10, mean)?
A: The AUC(0-inf) was 5310 ng·h/mL.

Q: And the Cmax ([6]; Fed Conditions, n = 10, mean)?
A: The Cmax was 980 ng/mL.

Q: What about the AUC(0-t) ([6]; Fed Conditions, n = 10, mean) of the same compound?
A: Its AUC(0-t) is 5160 ng·h/mL.

Q: And the concentration at 5 h ([7]; dose 50 mg twice daily oral for 12 weeks, Day 2 of Week 12, read-out: CSF concentration with mean ± standard deviation)?
A: Its concentration at 5 h is 1.07 ± 1.8 ng/mL.

Q: What about the concentration at 5 h ([7]; dose 100 mg twice daily oral for 12 weeks, Day 2 of Week 12, read-out: CSF concentration with mean ± standard deviation) of the same compound?
A: Its concentration at 5 h is 4.36 ± 2.66 ng/mL.

Q: And the concentration at 5 h ([7]; dose 150 mg twice daily oral for 12 weeks, Day 2 of Week 12, read-out: CSF concentration with mean ± standard deviation)?
A: The concentration at 5 h was 3.87 ± 2.74 ng/mL.

Q: And the concentration at 5 h ([7]; oral, 5 hours post-dose on Week 12, range of means across dose groups, levels below lower limit of quantitation considered as zero, read-out: mean concentrations of 3-APS in the cerebrospinal fluid (CSF))?
A: Its concentration at 5 h is 2.61 to 7.33 ng/mL.
